Experimental data reported in the CheMixHub viscosity set.
± gives the uncertainty stated by the source.

Assay: xn = mol fraction of the nth substance listed

ClC(Cl)=C(Cl)Cl + ClC(Cl)(Cl)Cl
Settings	viscosity [mPa·s]
298.15 K, 101 kPa, x2 = 0.0973	0.8311 ± 0.0071
298.15 K, 101 kPa, x2 = 0.1594	0.8241 ± 0.007
298.15 K, 101 kPa, x2 = 0.244	0.8182 ± 0.007
298.15 K, 101 kPa, x2 = 0.3103	0.8153 ± 0.0069
298.15 K, 101 kPa, x2 = 0.4139	0.813 ± 0.0069
298.15 K, 101 kPa, x2 = 0.4636	0.8122 ± 0.0069
298.15 K, 101 kPa, x2 = 0.5633	0.814 ± 0.0069
298.15 K, 101 kPa, x2 = 0.63	0.8216 ± 0.007
298.15 K, 101 kPa, x2 = 0.6339	0.8211 ± 0.007
298.15 K, 101 kPa, x2 = 0.7582	0.8392 ± 0.0071
298.15 K, 101 kPa, x2 = 0.8067	0.8482 ± 0.0072
298.15 K, 101 kPa, x2 = 0.9135	0.8744 ± 0.0074
303.15 K, 101.33 kPa, x1 = 0.3238	0.818 ± 0.007
303.15 K, 101.33 kPa, x1 = 0.402	0.814 ± 0.007
303.15 K, 101.33 kPa, x1 = 0.56	0.808 ± 0.007
303.15 K, 101.33 kPa, x1 = 0.6543	0.801 ± 0.007
303.15 K, 101.33 kPa, x1 = 0.7629	0.8 ± 0.007
303.15 K, 101.33 kPa, x1 = 0.8308	0.798 ± 0.007
303.15 K, 101.33 kPa, x1 = 0.9128	0.797 ± 0.007

CCOCCOCCO + ClC(Cl)=C(Cl)Cl
298.15 K, 101.33 kPa
Settings	viscosity [mPa·s]
x1 = 0.0123	0.859 ± 0.009
x1 = 0.0256	0.874 ± 0.009
x1 = 0.0478	0.903 ± 0.009
x1 = 0.0645	0.928 ± 0.009
x1 = 0.0824	0.956 ± 0.009
x1 = 0.097	0.979 ± 0.01
x1 = 0.1126	1.012 ± 0.01
x1 = 0.1488	1.081 ± 0.011
x1 = 0.1758	1.135 ± 0.011
x1 = 0.2057	1.196 ± 0.012
x1 = 0.2427	1.278 ± 0.013
x1 = 0.2829	1.371 ± 0.013
x1 = 0.3332	1.493 ± 0.015
x1 = 0.3756	1.61 ± 0.016
x1 = 0.4139	1.717 ± 0.017
x1 = 0.4562	1.843 ± 0.018
x1 = 0.4889	1.949 ± 0.019
x1 = 0.5216	2.063 ± 0.02
x1 = 0.5734	2.246 ± 0.022
x1 = 0.6176	2.412 ± 0.024
x1 = 0.6576	2.552 ± 0.026
x1 = 0.6972	2.699 ± 0.027
x1 = 0.7396	2.858 ± 0.029
x1 = 0.8033	3.119 ± 0.032
x1 = 0.854	3.335 ± 0.034
x1 = 0.8945	3.519 ± 0.036
x1 = 0.9227	3.64 ± 0.038
x1 = 0.9398	3.718 ± 0.039
x1 = 0.9556	3.786 ± 0.039
x1 = 0.9736	3.873 ± 0.04
x2 = 0.0112	3.936 ± 0.041

CCOCCOCCO + ClC=C(Cl)Cl
298.15 K, 101.33 kPa
Settings	viscosity [mPa·s]
x1 = 0.0082	0.539 ± 0.006
x1 = 0.0263	0.563 ± 0.006
x1 = 0.0381	0.58 ± 0.006
x1 = 0.0517	0.602 ± 0.006
x1 = 0.0641	0.62 ± 0.006
x1 = 0.0756	0.639 ± 0.007
x1 = 0.0944	0.669 ± 0.007
x1 = 0.129	0.736 ± 0.007
x1 = 0.1724	0.823 ± 0.008
x1 = 0.2108	0.91 ± 0.009
x1 = 0.2459	0.997 ± 0.01
x1 = 0.2921	1.117 ± 0.011
x1 = 0.3336	1.235 ± 0.012
x1 = 0.3791	1.376 ± 0.014
x1 = 0.4231	1.528 ± 0.015
x1 = 0.457	1.659 ± 0.016
x1 = 0.4908	1.788 ± 0.018
x1 = 0.5204	1.902 ± 0.019
x1 = 0.557	2.042 ± 0.02
x1 = 0.5875	2.163 ± 0.021
x1 = 0.632	2.342 ± 0.023
x1 = 0.6736	2.519 ± 0.025
x1 = 0.7163	2.701 ± 0.027
x1 = 0.7635	2.912 ± 0.029
x1 = 0.7976	3.068 ± 0.031
x1 = 0.8333	3.224 ± 0.033
x1 = 0.8779	3.423 ± 0.035
x1 = 0.9203	3.621 ± 0.037
x1 = 0.9414	3.723 ± 0.039
x1 = 0.9717	3.857 ± 0.04
x2 = 0.018	3.895 ± 0.041

CCCCCCCCCCCCCC + Clc1ccccc1
viscosity [mPa·s], 101 kPa
Settings	x1 = 0.1001	x1 = 0.1937	x1 = 0.295	x1 = 0.3916	x1 = 0.494	x1 = 0.5998	x1 = 0.6984	x1 = 0.8002	x1 = 0.9001
298.15 K	0.844 ± 0.083	0.945 ± 0.091	1.063 ± 0.1	1.151 ± 0.11	1.266 ± 0.12	1.38 ± 0.13	1.495 ± 0.14	1.609 ± 0.15	1.724 ± 0.16
303.15 K	0.789 ± 0.078	0.877 ± 0.085	0.964 ± 0.093	1.097 ± 0.1	1.161 ± 0.11	1.226 ± 0.11	1.291 ± 0.12	1.354 ± 0.12	1.419 ± 0.13
308.15 K	0.746 ± 0.074	0.819 ± 0.081	0.932 ± 0.09	0.991 ± 0.095	1.041 ± 0.099	1.19 ± 0.11	1.241 ± 0.12	1.219 ± 0.11	1.397 ± 0.13

ClC(Cl)=C(Cl)Cl + Clc1ccccc1
303.15 K, 101 kPa
Settings	viscosity [mPa·s]
x1 = 0.1416	0.716 ± 0.017
x1 = 0.2048	0.717 ± 0.016
x1 = 0.2727	0.718 ± 0.015
x1 = 0.3562	0.72 ± 0.014
x1 = 0.4651	0.728 ± 0.013
x1 = 0.5412	0.739 ± 0.012
x1 = 0.6279	0.751 ± 0.011
x1 = 0.718	0.766 ± 0.01
x1 = 0.8422	0.786 ± 0.009
x1 = 0.9302	0.802 ± 0.008

O=C(c1ccccc1)c1ccc2n1CCC2C(=O)[O-].[NH3+]C(CO)(CO)CO (stereo not given) + O
viscosity [mPa·s], 101 kPa
Settings	293.15 K	298.15 K	303.15 K	308.15 K	313.15 K
x1 = 0.0002	1.037 ± 0.021	0.9251 ± 0.021	0.8319 ± 0.021	0.7538 ± 0.021	0.688 ± 0.021
x1 = 0.0007	1.071 ± 0.027	0.9598 ± 0.021	0.8666 ± 0.021	0.7882 ± 0.021	0.723 ± 0.034
x1 = 0.001	1.105 ± 0.022	0.9936 ± 0.022	0.9005 ± 0.021	0.822 ± 0.021	0.7569 ± 0.021

O=C[C@H](O)[C@@H](O)[C@H](O[C@@H]1O[C@H](CO)[C@H](O)[C@H](O)[C@H]1O)[C@H](O)CO + O
viscosity [mPa·s]
Settings	100 kPa	101 kPa
293.15 K, x1 = 0.002	–	1.074 ± 0.022
293.15 K, x1 = 0.004	–	1.155 ± 0.024
293.15 K, x1 = 0.005	–	1.241 ± 0.026
298.15 K, x1 = 0.002	0.976 ± 0.02	0.9875 ± 0.021
298.15 K, x1 = 0.004	–	1.065 ± 0.022
298.15 K, x1 = 0.005	–	1.149 ± 0.024
303.15 K, x1 = 0.002	0.873 ± 0.018	0.8893 ± 0.018
303.15 K, x1 = 0.004	–	0.9654 ± 0.02
303.15 K, x1 = 0.005	–	1.047 ± 0.022
308.15 K, x1 = 0.001805	–	0.784 ± 0.017
308.15 K, x1 = 0.002	0.786 ± 0.016	0.7922 ± 0.017
308.15 K, x1 = 0.003683	–	0.864 ± 0.019
308.15 K, x1 = 0.004	–	0.8716 ± 0.018
308.15 K, x1 = 0.005	–	0.9524 ± 0.02
308.15 K, x1 = 0.005432	–	0.934 ± 0.02
308.15 K, x1 = 0.006317	–	0.966 ± 0.021
308.15 K, x1 = 0.007218	–	1.012 ± 0.022
308.15 K, x1 = 0.008098	–	1.063 ± 0.023
313.15 K, x1 = 0.002	0.709 ± 0.015	0.7014 ± 0.015
313.15 K, x1 = 0.004	–	0.7822 ± 0.016
313.15 K, x1 = 0.005	–	0.8636 ± 0.018
318.15 K, x1 = 0.001802	–	0.601 ± 0.013
318.15 K, x1 = 0.002729	–	0.621 ± 0.014
318.15 K, x1 = 0.003613	–	0.642 ± 0.014
318.15 K, x1 = 0.004521	–	0.67 ± 0.015
318.15 K, x1 = 0.006298	–	0.725 ± 0.016
318.15 K, x1 = 0.007249	–	0.757 ± 0.017
318.15 K, x1 = 0.01074	–	0.885 ± 0.019
